Data on one compound can be found in patent publication US7109229B2, “Methods and compounds for treating proliferative diseases” (Eli Lilly and Company, priority 2000, dated 2006).

The structures appear in SMILES notation. Marks after values point to notes of the source that are not given here.

For test [1], the target named is T1, Cyclin D1-cdk4 (Homo sapiens, UniProt P11802). Description: Cyclin D1-cdk4 kinase activity with the Rb21 protein as substrate. It is filed as biochemical. The procedure:
The compounds of Formula I were tested using in vitro. An important in vitro test is the ability of the compound to inhibit the activity of the CDK4 enzyme. This test is done using Rb^ING and/or Rb^21 substrates as described in the literature ([…]., et al, J. Biol. Chem. 273, 26506-26515 (1998)). […] The reaction was incubated at room temperature (about 74° F.) for 60 minutes, and then terminated by the addition of 100 ul of 25% trichloroacetic acid. Next, the reaction was filtered through a Millipore Multiscreen-FC Plate-Catalog number MAFC NOB 10, and the plate was washed 2 times with 320 ul each of 10% trichloroacetic acid, followed by the addition of 100 ul of scintillation fluid and quantitation on a Packard Instruments, Top Count, scintillation counter.

In test [2] the test system is HCT116 cells. Description: Cell growth inhibition assay (MTT), HCT116. It is filed as cell-based. To be noted: Homo sapiens, HCT-116, 72 h drug exposure. The source says:
(§1) A major in vitro test is the cell growth inhibition test. In this test, the concentration of the test compound that causes a 50% inhibition of cell growth for a selected cell line. A low value is desirable in this test. This test is done according to a standard protocol (SCHULTZ, R. M., et al, Oncology Res. 5, 223–228 (1993)). Another major in vitro test is the G1 arrest test. This test measures the proportion of the cells that are arrested in the G1 phase relative to control. A result above 1.5 is desirable in this test. […] The results are expressed as a percentage inhibition of ser-780 pRb phosphorylation in drug treated cells versus control cells treated with DMSO alone. […]

The target of test [3] is T1, Cyclin D1-cdk4. Description: Cyclin D1-cdk4 kinase activity with the ING peptide as substrate. It is filed as biochemical. The procedure: The compounds of Formula I were tested using in vitro. An important in vitro test is the ability of the compound to inhibit the activity of the CDK4 enzyme. This test is done using Rb^ING and/or Rb^21 substrates as described in the literature (KONSTANTINIDIS, A. K., et al, J. Biol. Chem. 273, 26506–26515 (1998)). The test yields the micromolar concentration of the test compound, which produces a 50% inhibition of the CDK4 enzyme activity.
Assay of Cyclin D1-cdk4 Kinase Activity with the ING Peptide as Substrate.
The cyclin D1-cdk4 kinase activity of a compound was assayed by preparing a 100 ul reaction at the following concentrations: 35 mM Hepes pH 7.0, 10 mM MgCl2, 300 uM ATP, 200 uM ING peptide, 1.0 uCi of γ-^33P-ATP, 4.34 ug of cyclin D-cdk4 enzyme, 4% DMSO, and various concentrations of inhibitor. The reaction was incubated at room temperature (about 74° F.) for 60 minutes, and then terminated by the addition of 100 ul of 10% phosphoric acid. Next, the reaction was filtered through a Millipore Multiscreen-PH Plate—Catalog number MAPH NOB 10, and the plate was washed 2 times with 320 ul each of 0.5% phosphoric acid, followed by the addition of 100 ul of scintillation fluid and quantitation on a Packard Instruments, Top Count, scintillation counter.

The test system of test [4] is Ser-780 pRb phosphorylation in HCT116 cells. Description: Inhibition of Rb phosphorylation assay. It is filed as cell-based, human. To be noted: HCT116 cells after 24 h incubation period.
Description: as §1
Human HCT116 colon carcinoma cell line was purchased from American Tissue Culture Collection (Rockville, Md.) and maintained as monolayer in RPMI-1640 with L-Glutamine and 25 mM HEPES supplemented with 10% fetal bovine serum in a 37° C. incubator with a 10% CO2 atmosphere. […] Protein concentration was determined by the Bio-Rad DC protein assay (Bio-Rad, Hercules, Calif.). […]

For another test, the system named is H460 cells. Put plainly: Cell growth inhibition assay (MTT), H460. It is filed as cell-based. To be noted: Homo sapiens, NCI-H460, 72 h drug exposure.
Description: as §1

Test [5] concerns HCT116 cells. Description: G1 arrest test, cell cycle analysis using flow cytometry. It is filed as cell-based, human. To be noted: HCT116 cells after 24 h incubation period; at IC50 conc.
Description: as §1
(In general: Flow cytometry measures light scatter and fluorescence of single cells or particles in a stream.)

T1 sequence (P11802 whole entry): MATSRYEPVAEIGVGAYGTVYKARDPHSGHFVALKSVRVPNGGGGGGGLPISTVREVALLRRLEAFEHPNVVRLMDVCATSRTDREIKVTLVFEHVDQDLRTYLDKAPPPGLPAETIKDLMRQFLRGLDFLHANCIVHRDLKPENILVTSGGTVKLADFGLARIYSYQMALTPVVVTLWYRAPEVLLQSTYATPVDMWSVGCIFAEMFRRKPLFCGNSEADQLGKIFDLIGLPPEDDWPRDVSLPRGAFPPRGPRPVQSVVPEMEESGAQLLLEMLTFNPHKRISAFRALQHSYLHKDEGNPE
T1 sequence (P24385 whole entry partner): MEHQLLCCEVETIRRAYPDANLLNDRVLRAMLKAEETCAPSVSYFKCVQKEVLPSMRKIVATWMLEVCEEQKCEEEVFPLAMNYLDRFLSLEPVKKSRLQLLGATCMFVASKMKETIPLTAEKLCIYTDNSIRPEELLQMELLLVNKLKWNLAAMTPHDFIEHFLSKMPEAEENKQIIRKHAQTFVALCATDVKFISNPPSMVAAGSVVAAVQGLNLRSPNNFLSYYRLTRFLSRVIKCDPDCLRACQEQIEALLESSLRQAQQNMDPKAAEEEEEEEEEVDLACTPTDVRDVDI

With `COc1ccc2c(c1)[nH]c1c3ccc4ccn(C)c4c3c3c(c21)C(=O)NC3=O` [Example 1, 11-Methoxy-5-methyl-5H,13H-indolo[6,7-a]pyrrolo[3,4-c]carbazole-6,8-dione], the IC50 on Cyclin D1-cdk4 [1] (Table 1, Rb21 protein substrate, read-out: Rb21 IC50) was found to be 0.00165 µM; at Cyclin D1-cdk4 [1] (Table 2, Rb^21 substrate, read-out: CDK4 Inhibition (IC50/μM) Rb^21), 0.001 µM; in the test with HCT116 cells [2], 1.8 µM; on Cyclin D1-cdk4 [3] (Table 1, ING peptide substrate, read-out: RbING IC50) it was 0.0431 µM; at Cyclin D1-cdk4 [3] (Table 2, Rb^ING substrate, read-out: CDK4 Inhibition (IC50/μM) Rb^ING) it was 0.04 µM; in the test on H460 cells it was 1.09 µM. Moreover, in test [4] (compound at 3XIC50), the “% Inhibtion of Rb Phosphorylation in vitro @3XIC50” value worked out at 97%. Besides, the “% Inhibtion of Rb Phosphorylation in vitro @IC50” value in test [4] (compound at IC50) is recorded as 90%. In addition, the “G1 Arrest; x vs control” value with HCT116 cells [5] is on record as 2.6^c x vs control.
